Reference: patent publication US9650674B2, “Nucleic acid probes and methods of using the same” (Board of Trustees University of Arkansas, priority 2012, dated 2017)
{Cy5.5} = Cy5.5 cyanine dye label

How the values were obtained:
[1] = test system: WT and DNase I KO mice; test: Intravital assessment in other organs (bilateral kidney ligation or cationic liposomes); conditions: imaging 3 hours after injection; FIGS. 10A and 10B
Method: To check an ability of probe to measure endonuclease activity on other organs, the renal distribution of AB259.3 probe was challenged by two complementary approaches. First group of mice was subjected to bilateral kidney ligation followed by intravital administration of AB259.3 probe and imaging in 3 hours after injection. […] Another group of mice was injected with AB259.3 probe packed in cationic liposomes in attempt to make probe delivery bioavailable to all organs and tissues and less specific to kidneys.
Male DNase I KO mice and their WT counterparts at the age 8-10 weeks were used for all experiments. All procedures with mice were performed under general anesthesia with 50 mg/kg ketamine. For subcutaneous administration, mice were injected with 10 μl of 0.1 μM AB259.3 in the dorsal subcutaneous site. For systemic visualization, AB259.3 was injected intravenously at 50 nmol/kg in tail vein. […] Bilateral kidney ligation was performed on anesthetized DNase I KO or WT mice. Renal pedicles were surgically ligated using 4.0 silk sutures. […]
Imaging of live and euthanized mice or their isolated organs were performed using Xenogen IVIS Image System 200 (Caliper Life Sciences, Hopkinton, Mass.) equipped with Living Image® Software. […] Quantification of the manually designated areas was performed based on average radiant efficiency with the fixed min-max dynamic range.

[2] = test system: wild-type (WT) mouse kidney cryosections; test: Endonuclease activity ex vivo in kidney cryosections; conditions: 5 μM probe, EAA buffer, 37° C.
Method: Next it was examined whether AB259.3 probe can be used for measurement of endonuclease activity in tissue sections. Kidneys were used because they are known for high activity of DNase I (Ca/Mg-dependent endonuclease). Freshly prepared 10 μm thick cryosections of wild-type (WT) mouse kidney were exposed with 5 μM AB259.3 probe in presence of EAA buffer at 37° C. and time-lapse imaged for 10 min with 1-min intervals.
Specimens of kidney, liver, spleen and testis tissues were removed from euthanized mice, immersed in OCT medium, rapidly frozen by Fisher Freeze-it and kept on dry ice for no longer than 1 hour prior slicing. Tissue cryosections (8-μm thick) were prepared using the Microm HM 505E cryotome, placed to the Fisher Plus slides and immediately exposed with 0.5 μM AB259.3 probe diluted in EAA buffer. In control samples, applied probe contained EAA buffer supplemented with 200 μM EDTA. Images were taken in 628/40-692/40 spectrum every 30 sec for 10 min in 10 random XY coordinates. Three sections from each specimen were analyzed separately. Maximal velocity of increasing fluorescence was averaged for each section.

[3] = Heat denaturing and reannealing of hairpin probes (probe integrity); format: physicochemical; conditions: ROX internal reference; above background; FIG. 1C
Method: To ensure the integrity of the DNA probes, it was tested whether a heat denaturing of the hairpins would cause an increase in fluorescence, and if a reannealing would reverse it. To compensate for thermal change of fluorophore's emission, the ROX fluorophore was added to tested probes as an internal reference.
(§1) All cell-free experiments were performed using the Bio-Tek Synergy 5 fluorescent plate reader. Before experiments, optimal excitation and emission wavelengths were determined. For this, excitation and emission were scanned in the ranges of 600-680 nm and 690-705 nm, respectively. The optimal excitation/emission was determined to be 665/703 nm. All kinetic and endpoint measurements were done in a total volume of 100 μl at 37° C. Unless stated otherwise, DNA substrate was used in final concentration 0.5 μM reconstituted in endonuclease activity assay (EAA) buffer (2 mM CaCl2, 5 mM MgCl2, 10 mM Tris-HCl, pH 7.4) in a 96-well plate. After measurement of starting fluorescence, DNase I or tested material (diluted 1:20 urine or 1:100 serum) were added to the reconstituted probe, rapidly mixed and fluorescence was monitored for up to 60 min with 30-sec intervals. In some instances, EDTA (final concentration 200 μM) or NaOH (50 mM) was added to terminate the reaction. For the experiments that involved assessment of fluorescence after DNA denaturing, probes were tested in Cepheid real-time PCR system using Cy5 setting (Sunnyvale, Calif.).

[4] = Baseline fluorescence of hairpin DNA probes; format: physicochemical; conditions: correlated with length of protruded DNA end; FIG. 1B
From the text: It was impossible to determine if the background fluorescence was attributed to the probe or it originated from a partial degradation of the probe. Consequently, the NIRF probes were designed as hairpins to allow testing the integrity of DNA by its denaturing followed by reannealing. The use of hairpin also allows easy measurement of the maximum fluorescence of the probe. The distance between two fluorophores varied by changing of protruding DNA strand length from +0 (AB259.1 probe) to +5 (AB259.3 probe) or to +10 (AB259.5 probe) as shown in FIG. 1A. The baseline fluorescence of probe AB259.1 was 30% higher than negative control without a probe (FIG. 1B).
as §1

[5] = molecular target: T1, DNase I (Homo sapiens, UniProt P24855); test: Kinetic fluorescence of probes exposed to DNase I in vitro; format: biochemical
T1 construct: purchased Sigma (St. Louis, Mo.)
T1 sequence (P24855 23-282): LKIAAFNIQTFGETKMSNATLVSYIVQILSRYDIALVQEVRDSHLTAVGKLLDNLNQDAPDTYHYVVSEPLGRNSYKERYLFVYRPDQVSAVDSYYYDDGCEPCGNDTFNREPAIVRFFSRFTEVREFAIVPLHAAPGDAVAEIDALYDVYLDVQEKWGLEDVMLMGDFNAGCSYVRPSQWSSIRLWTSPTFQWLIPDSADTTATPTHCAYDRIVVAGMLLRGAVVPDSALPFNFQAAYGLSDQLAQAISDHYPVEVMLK
Method: It was hypothesized that exposure of the probes to endonucleases would lead to DNA cleavage and dissociation of protruded strand from the hairpin (FIG. 2A). To assess which of the proposed probes is the best to measure endonuclease activity, the probes (0.5 μM) were exposed with recombinant human DNase I (1 μg/ml) and the kinetic fluorescence curves were recorded. Twenty min into the reaction, AB259.1, AB259.3 and AB259.5 gained 1.75-, 2.6- and 1.62-fold fluorescence, respectively, compared to the baseline (FIG. 2B). At 20-25 min, AB259.1 and AB259.3 reached the plateaus. […] Therefore, AB259.3 was chosen for further experiments.
To detect specificity of the assay to DNase I that is a Ca/Mg-dependent endonuclease, AB259.3 probe was tested with 1 μg/ml DNase I in the presence of Ca++ and Mg++ (EAA buffer), in absence of the cations (deionized water), or in excess of EDTA (200 μM). […] Finally, it was tested whether AB259.3 probe will detect inhibition of DNase I activity by DNase I inhibitors such as ZnCl2 and Zn-diisopropyl salicylate (Zn-DIPS).
as §1

[6] = test system: WT mice; test: Histological distribution of probe in kidneys; format: in vivo, mouse; conditions: 50 nmol/kg intravenous
Method: It was assessed whether AB259.3 probe is specifically accumulated in any renal compartments or its accumulation in the kidney is simply due to the excretion with urine. For this, WT mice were administered intravenously with 50 nmol/kg of AB259.3 probe and kidneys were collected in 1 or 3 hours, frozen, cryosectioned and examined under fluorescent microscope in 628/40-692/40 spectrum. […] Morphologically, fluorescence was detected mainly in membranous parts of the epithelial cells, such as basolateral and, to lesser extent, at apical surface.

[7] = test system: WT and DNase I KO mice; test: Intravital imaging of endonuclease activity in kidneys
From the text: At the next step, WT and DNase I KO mice were anesthetized and intravenously administered with 50 nmol/kg of AB259.3 probe followed by intravital imaging using Xenogen-IVIS.
To additionally confirm preferential accumulation and processing of AB259.3 probe in kidneys, separate set of mice was deeply anesthetized and subjected to abdominal incision and real-time intravital visualization of left kidney while performing intravenous injection of AB259.3 probe. […] For this, DNase I KO animals were subjected to open surgery that was used to administer 5 μl DNase I (0.1 mg/ml) to subcapsular space of upper ventral zone of left kidney. To control effect of DNase I, additional WT and DNase I KO mice were injected with same volume of the vehicle. Immediately after injection, mice were injected with 50 nmol/kg of AB259.3 probe intravenously and then imaged in a Xenogen-IVIS.
Male DNase I KO mice and their WT counterparts at the age 8-10 weeks were used for all experiments. All procedures with mice were performed under general anesthesia with 50 mg/kg ketamine. For subcutaneous administration, mice were injected with 10 μl of 0.1 μM AB259.3 in the dorsal subcutaneous site. For systemic visualization, AB259.3 was injected intravenously at 50 nmol/kg in tail vein.
Imaging of live and euthanized mice or their isolated organs were performed using Xenogen IVIS Image System 200 (Caliper Life Sciences, Hopkinton, Mass.) equipped with Living Image® Software.

In the case of “[Cy5.5]AACACTCCGATGAGTGTAGAATGT[Cy5.5] (DNA, 5' {Cy5.5}, 3' {Cy5.5}, backbone not given here) [AB259.3]”, the “probe accumulation after bilateral kidney ligation” value [1] is reported as “accumulation in kidneys was completely abolished”, the “time to plateau of fluorescence” value [2] is reported as 2 to 3 min and the “increase of Cy5.5 fluorescence compared to starting point” value ([2]; 10 min, FIGS. 5A and 5B) is reported as 2.5 times. For the same substance, the “gain of fluorescence on heat denaturing” value [3] was 2.8 times, the “baseline fluorescence (in words)” value [4] was “much higher levels of the baseline fluorescence” and the “dependence of kinetic reaction on DNase I concentration” value ([5]; different concentrations of DNase I, FIG. 2C) was “linear correlation between mean velocity (Vm) of the kinetic reaction and DNase I concentration”. For the same substance, the “gain of fluorescence compared to baseline” value ([5]; probe 0.5 μM, DNase I 1 μg/ml, twenty min into the reaction, FIG. 2B) was 2.6 fold, the “renal localisation of activated probe at 1 hour” value ([6]; 1 hour) was “cortical compartment, and mainly proximal tubules already contained significant amount of activated AB259.3 probe” and the “renal localisation of activated probe at 3 hours” value ([6]; 3 hours, FIG. 8) was “started to appear in medullar compartment and distal tubules”. For the same substance, the “time to plateau of fluorescence in kidneys, intravital imaging” value ([7]; 50 nmol/kg intravenous, FIGS. 7A and 7B) was 10 min, the “retention of fluorescence by kidneys” value ([7]; 50 nmol/kg intravenous, FIGS. 7C and 7D) was “at least 5 hours” and the “time to plateau of Cy5.5 fluorescence in exposed left kidney, real-time” value ([7]; abdominal incision, intravenous injection, FIG. 7E) was 10 min.
